Results on two molecules are retold here after US5476850A, “Amino-substituted benzenesulfonylureas and -thioureas and their use as pharmaceuticals” (Hoechst Aktiengesellschaft, priority 1993, dated 1995).

Experiment [1] concerns papillary muscle of the guinea-pig. Kind of experiment: Action potential duration on the papillary muscle of the guinea-pig (microelectrode technique; APD shortened by 2-deoxyglucose or rilmakalim). The class given is cell-based. The note with it: test substance 2.2·10^-5 mol per liter, 30 minutes after addition, control <40 ms; for APD95 -rilmakalim: action potential reduced by 1 μM rilmakalim (Hoe 234); for APD95 -DEO: action potential reduced by 2-deoxyglucose (DEO). The source says:
(1) Action potential duration on the papillary muscle of the guinea-pig:
ATP deficiency states, as are observed during ischemia in the cardiac muscle cell, lead to a reduction of the action potential duration. They count as one of the causes of so-called reentry arrhythmias, which can cause sudden heart death. The opening of ATP-sensitive K channels by the reduction of ATP counts as causal here.
To measure the action potential, a standard microelectrode technique is employed. For this, guinea-pigs of both sexes are killed by a blow to the head, the hearts are removed, and the papillary muscles are separated out and suspended in an organ bath. The organ bath is irrigated with Ringer solution (0.9% NaCl, 0.048% KCl, 0,024% CaCl2, 0.02% NaHCO3 and 0.1% glucose) and aerated with a mixture of 95% oxygen and 5% carbon dioxide at a temperature of 36° C. The muscle is stimulated by means of an electrode using square-wave impulses of 1 V and 1 ms duration and a frequency of 2 Hz. The action potential is derived and recorded by means of a glass microelectrode inserted intracellularly, which is filled with […] KCl solution. The substances to be tested were added to the Ringer solution in a concentration of 2.2·10^-5 mol per liter. The action potential is shown amplified on an oscilloscope using an amplifier from Hugo Sachs. The duration of the action potential is determined at a degree of repolarization of 95% (APD95). Action potential reductions are produced either by addition of a 1 μM solution of the potassium channel opener rilmakalim (Hoe 234) [W. Linz, E. Klaus, U. Albus, R. H. A. Becker, D. Mania, H. C. Englert, B. A. Schokens, Arzneimittelforschung/Drug Research, Volume 42 (II), 1992, pp. 1180 to 1185] or by addition of 2-deoxyglucose (DEO). In experimental physiology, ATP deficiency states are produced by 2-deoxyglucose by blockade of glucose metabolism. The action potential-reducing effect of these substances was prevented or reduced by the simultaneous addition of the test substances. Test substances were added to the bath solution as stock solutions in propanediol. The values indicated relate to measurements 30 minutes after addition. The APD95 in the presence of […] or rilmakalim and in the absence of the test substance counts as the control.

The subject of another experiment is RINm5F cells. As to the kind of experiment: Membrane potential on isolated β-cells (whole cell patch clamp, RINm5F cells). The class given is cell-based. The note with it: compound 10^-6 mol per liter; diazoxide 100 μmol in bath; 34°±1° C.; blank cell potential -76. From the text:
(2) Membrane potential on isolated β-cells:
The mechanism of action of the hypoglycemic sulfonylureas is elucidated in rough terms. The target organ is the β-cells of the pancreas where increased secretion of the hypoglycemic hormone insulin occurs. The release of insulin is controlled by means of the cell membrane potential. Glibenclamide causes a depolarization of the cell membrane, which promotes insulin release via an increased influx of calcium ions. The extent of this depolarization of the cell membrane ΔU was determined on RINm5F cells, a pancreas tumor cell line, for a few of the compounds according to the invention. The potency of a compound in this model predicts the extent of the hypoglycemic potential of this compound.
RINm5F cells were cultured at 37° C. in RPMI 1640 culture medium (Flow), to which 11 mmol of glucose, 10% (vol/vol) fetal calf-serum, 2 mmol of glutamine and 50 μg/ml of gentamycin were added. […]
Isolated RINm5F cells were transferred to a Plexiglas chamber on an inverted microscope which is equipped with a differential interference contrast optical system. […] In this whole cell configuration, the cell potential was recorded with the aid of a patch clamp amplifier (L/M EPC 7) and measured by applying a voltage ramp to the whole cell current. […]
In general terms: The patch-clamp technique gives a direct electrical read-out from membranes.

Regarding `CNC(=S)NS(=O)(=O)c1cc(CCNC(=O)c2cc(Cl)ccc2OC)ccc1N1CCOCC1` [Example 1, 2-Methoxy-5-chloro-N-{5-[1-sulfonylamino-N-(methylaminothiocarbonyl)-2-(4-morpholino)phenyl]ethyl}benzamide], in experiment [1], the APD95 -rilmakalim turned out to be 121 ± 14 ms and the “APD95 -DEO” value is on record as 110 ms. Moreover, the “ΔU (depolarization of the cell membrane)” value with RINm5F cells was found to be 14 mv.
The matching figures for `CNC(=S)NS(=O)(=O)c1cc(CCNC(=O)c2cc(Cl)ccc2OC)ccc1N1CCCCC1` [Example 2, 2-Methoxy-5-chloro-N-{5-[1-sulfonylamino-N-(methylaminothiocarbonyl)-2-(1-piperidyl)phenyl]ethyl}benzamide]: 153 ± 15 ms, 105 ± 11 ms and 19 mv.
